Assay results published in paper PMC9851200, “Multiparameter phenotypic screening for endogenous TFEB and TFE3 translocation identifies novel chemical series modulating lysosome function” (Autophagy, 2022).

Key:
Type in all cases: binding
[1] = molecular target: kinases (KINOMEscan panel) (Homo sapiens, UniProt P00533, DEL746-750); details: NEW KINOMEscan
[2] = molecular target: kinases (KINOMEscan panel) (Homo sapiens, UniProt P23458); details: JAK1(JH1domain-catalytic); NEW KINOMEscan
[3] = molecular target: T1, kinases (KINOMEscan panel) (Homo sapiens, UniProt P35626); details: GRK3; NEW KINOMEscan
T1 sequence (P35626 1-688): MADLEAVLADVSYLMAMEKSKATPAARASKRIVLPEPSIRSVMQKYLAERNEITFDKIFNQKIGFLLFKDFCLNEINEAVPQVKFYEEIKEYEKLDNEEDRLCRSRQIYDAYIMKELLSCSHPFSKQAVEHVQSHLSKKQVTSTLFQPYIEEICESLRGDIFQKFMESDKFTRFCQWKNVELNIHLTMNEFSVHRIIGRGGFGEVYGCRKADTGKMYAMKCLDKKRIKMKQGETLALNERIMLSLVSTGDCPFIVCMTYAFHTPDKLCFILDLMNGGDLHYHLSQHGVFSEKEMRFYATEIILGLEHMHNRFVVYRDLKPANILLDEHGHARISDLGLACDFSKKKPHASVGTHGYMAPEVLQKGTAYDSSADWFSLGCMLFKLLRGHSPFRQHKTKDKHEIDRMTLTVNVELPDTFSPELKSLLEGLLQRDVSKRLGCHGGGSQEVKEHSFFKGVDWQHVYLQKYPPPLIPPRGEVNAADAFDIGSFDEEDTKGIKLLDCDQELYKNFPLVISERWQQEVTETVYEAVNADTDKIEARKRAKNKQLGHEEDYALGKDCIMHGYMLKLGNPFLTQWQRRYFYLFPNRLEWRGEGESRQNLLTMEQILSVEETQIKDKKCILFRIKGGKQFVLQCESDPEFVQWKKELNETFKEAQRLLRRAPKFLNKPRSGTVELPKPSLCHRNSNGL

[4] = molecular target: kinases (KINOMEscan panel) (Homo sapiens, UniProt P54764); details: EPHA4; NEW KINOMEscan
[5] = molecular target: kinases (KINOMEscan panel) (Homo sapiens, UniProt Q00535); details: NEW KINOMEscan
[6] = molecular target: kinases (KINOMEscan panel) (Homo sapiens, UniProt Q02779); details: kinase MAP3K10; NEW KINOMEscan
[7] = molecular target: kinases (KINOMEscan panel) (Homo sapiens, UniProt Q16584); details: kinase MAP3K11; NEW KINOMEscan
[8] = molecular target: kinases (KINOMEscan panel) (Homo sapiens, UniProt Q9BUB5); details: NEW KINOMEscan
[9] = molecular target: kinases (KINOMEscan panel) (Homo sapiens, UniProt Q9BX84); details: TRPM6; NEW KINOMEscan
[10] = molecular target: T2, kinases (KINOMEscan panel) (Homo sapiens, UniProt Q9NRM7); details: NEW KINOMEscan
T2 sequence (Q9NRM7 1-1088): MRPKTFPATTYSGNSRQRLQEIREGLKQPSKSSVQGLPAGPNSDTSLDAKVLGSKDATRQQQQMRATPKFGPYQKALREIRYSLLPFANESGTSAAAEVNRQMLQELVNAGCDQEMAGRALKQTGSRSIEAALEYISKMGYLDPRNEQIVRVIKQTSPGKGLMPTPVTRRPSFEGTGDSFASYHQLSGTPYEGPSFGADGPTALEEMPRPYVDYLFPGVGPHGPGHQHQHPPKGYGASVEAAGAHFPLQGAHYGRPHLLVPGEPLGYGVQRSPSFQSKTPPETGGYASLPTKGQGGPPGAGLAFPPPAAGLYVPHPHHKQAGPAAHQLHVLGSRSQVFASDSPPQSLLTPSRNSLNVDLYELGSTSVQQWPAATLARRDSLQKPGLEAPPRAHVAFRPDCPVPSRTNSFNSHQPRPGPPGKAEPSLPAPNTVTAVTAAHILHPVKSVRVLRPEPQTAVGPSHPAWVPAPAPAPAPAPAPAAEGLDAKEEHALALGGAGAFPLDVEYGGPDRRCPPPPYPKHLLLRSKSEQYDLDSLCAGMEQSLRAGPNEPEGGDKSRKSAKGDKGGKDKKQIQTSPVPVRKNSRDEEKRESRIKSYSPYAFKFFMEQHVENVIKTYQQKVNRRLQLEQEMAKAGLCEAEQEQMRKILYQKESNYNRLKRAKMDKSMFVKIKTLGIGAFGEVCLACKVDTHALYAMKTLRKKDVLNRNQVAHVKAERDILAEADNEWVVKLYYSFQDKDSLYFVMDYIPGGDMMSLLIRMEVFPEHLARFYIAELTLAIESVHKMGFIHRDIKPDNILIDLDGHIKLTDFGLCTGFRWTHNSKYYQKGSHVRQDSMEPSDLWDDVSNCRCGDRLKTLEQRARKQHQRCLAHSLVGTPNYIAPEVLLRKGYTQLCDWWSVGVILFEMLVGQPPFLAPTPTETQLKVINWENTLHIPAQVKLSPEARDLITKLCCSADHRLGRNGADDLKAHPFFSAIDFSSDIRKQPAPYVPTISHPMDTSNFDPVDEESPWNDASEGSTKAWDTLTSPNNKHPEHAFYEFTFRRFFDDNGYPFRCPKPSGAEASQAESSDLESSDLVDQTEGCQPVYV

[11] = molecular target: T3, kinases (KINOMEscan panel) (Homo sapiens, UniProt Q9UBE8); details: NLK; NEW KINOMEscan
T3 sequence (Q9UBE8 1-527): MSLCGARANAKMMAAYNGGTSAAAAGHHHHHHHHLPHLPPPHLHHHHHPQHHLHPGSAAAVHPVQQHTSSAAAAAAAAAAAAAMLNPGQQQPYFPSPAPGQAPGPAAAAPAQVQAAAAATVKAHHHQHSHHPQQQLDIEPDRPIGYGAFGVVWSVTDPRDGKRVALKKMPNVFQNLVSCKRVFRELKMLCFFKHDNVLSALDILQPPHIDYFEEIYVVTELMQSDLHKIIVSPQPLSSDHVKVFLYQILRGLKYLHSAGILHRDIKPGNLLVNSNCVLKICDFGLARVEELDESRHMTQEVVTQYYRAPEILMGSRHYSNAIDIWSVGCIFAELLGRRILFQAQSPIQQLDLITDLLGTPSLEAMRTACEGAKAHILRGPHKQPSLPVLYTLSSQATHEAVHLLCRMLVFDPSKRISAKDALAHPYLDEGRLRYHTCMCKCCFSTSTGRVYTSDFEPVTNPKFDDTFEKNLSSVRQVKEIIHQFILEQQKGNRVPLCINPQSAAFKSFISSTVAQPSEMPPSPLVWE

kinases (KINOMEscan panel) (Homo sapiens, UniProt Q9BUB5), sequence (Q9BUB5 whole entry): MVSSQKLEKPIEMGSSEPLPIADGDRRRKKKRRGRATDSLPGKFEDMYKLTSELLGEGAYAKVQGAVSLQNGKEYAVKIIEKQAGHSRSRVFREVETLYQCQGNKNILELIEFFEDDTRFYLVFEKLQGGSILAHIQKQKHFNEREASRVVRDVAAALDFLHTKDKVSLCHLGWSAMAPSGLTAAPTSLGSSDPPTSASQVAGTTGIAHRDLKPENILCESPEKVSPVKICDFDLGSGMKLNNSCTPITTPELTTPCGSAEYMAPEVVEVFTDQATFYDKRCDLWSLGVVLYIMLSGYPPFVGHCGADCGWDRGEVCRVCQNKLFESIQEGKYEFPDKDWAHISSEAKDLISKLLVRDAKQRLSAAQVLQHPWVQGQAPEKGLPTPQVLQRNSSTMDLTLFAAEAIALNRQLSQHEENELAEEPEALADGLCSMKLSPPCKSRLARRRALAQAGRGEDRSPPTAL
kinases (KINOMEscan panel) (Homo sapiens, UniProt P00533, DEL746-750), sequence (P00533 with tags, fused parts or gaps DEL746-750): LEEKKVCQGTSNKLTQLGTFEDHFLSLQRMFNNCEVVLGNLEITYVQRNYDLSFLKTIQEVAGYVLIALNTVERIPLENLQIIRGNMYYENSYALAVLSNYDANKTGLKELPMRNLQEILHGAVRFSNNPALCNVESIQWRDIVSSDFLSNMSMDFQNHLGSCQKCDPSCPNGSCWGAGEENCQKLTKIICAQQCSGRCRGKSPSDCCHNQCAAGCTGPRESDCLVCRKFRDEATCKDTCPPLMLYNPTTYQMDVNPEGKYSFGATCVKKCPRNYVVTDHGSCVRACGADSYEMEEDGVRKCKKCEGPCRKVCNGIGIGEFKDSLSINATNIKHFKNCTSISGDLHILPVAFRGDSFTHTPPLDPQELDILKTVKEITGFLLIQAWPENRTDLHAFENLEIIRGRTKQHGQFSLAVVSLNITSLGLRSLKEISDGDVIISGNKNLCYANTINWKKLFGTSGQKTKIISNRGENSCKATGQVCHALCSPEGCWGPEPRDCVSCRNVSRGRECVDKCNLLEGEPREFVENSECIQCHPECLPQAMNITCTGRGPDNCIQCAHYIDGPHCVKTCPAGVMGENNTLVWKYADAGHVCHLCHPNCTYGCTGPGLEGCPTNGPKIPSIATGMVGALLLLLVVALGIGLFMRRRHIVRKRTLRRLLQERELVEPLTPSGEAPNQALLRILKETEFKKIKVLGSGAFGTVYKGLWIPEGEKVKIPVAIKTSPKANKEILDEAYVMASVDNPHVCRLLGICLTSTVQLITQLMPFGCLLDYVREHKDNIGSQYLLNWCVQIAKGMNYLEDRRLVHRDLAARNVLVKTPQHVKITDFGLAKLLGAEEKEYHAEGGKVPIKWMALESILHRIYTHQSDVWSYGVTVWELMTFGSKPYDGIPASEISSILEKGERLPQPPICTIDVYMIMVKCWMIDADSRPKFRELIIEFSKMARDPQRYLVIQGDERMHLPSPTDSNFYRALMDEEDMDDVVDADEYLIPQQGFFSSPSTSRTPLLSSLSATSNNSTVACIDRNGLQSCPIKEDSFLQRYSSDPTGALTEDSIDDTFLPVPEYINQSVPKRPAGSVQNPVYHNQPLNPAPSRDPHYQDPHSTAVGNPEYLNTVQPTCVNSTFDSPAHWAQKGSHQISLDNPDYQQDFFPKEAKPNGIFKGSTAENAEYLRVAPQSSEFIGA
kinases (KINOMEscan panel) (Homo sapiens, UniProt Q00535), sequence (Q00535 whole entry): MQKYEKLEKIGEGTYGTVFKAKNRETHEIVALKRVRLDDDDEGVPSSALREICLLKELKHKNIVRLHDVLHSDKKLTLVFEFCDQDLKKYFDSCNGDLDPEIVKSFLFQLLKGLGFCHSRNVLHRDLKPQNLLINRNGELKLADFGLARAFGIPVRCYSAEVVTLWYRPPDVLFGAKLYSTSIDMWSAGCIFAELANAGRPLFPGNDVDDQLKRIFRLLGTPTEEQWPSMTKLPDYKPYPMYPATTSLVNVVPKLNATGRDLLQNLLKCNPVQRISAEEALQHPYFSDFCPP
kinases (KINOMEscan panel) (Homo sapiens, UniProt P23458), sequence (P23458 whole entry): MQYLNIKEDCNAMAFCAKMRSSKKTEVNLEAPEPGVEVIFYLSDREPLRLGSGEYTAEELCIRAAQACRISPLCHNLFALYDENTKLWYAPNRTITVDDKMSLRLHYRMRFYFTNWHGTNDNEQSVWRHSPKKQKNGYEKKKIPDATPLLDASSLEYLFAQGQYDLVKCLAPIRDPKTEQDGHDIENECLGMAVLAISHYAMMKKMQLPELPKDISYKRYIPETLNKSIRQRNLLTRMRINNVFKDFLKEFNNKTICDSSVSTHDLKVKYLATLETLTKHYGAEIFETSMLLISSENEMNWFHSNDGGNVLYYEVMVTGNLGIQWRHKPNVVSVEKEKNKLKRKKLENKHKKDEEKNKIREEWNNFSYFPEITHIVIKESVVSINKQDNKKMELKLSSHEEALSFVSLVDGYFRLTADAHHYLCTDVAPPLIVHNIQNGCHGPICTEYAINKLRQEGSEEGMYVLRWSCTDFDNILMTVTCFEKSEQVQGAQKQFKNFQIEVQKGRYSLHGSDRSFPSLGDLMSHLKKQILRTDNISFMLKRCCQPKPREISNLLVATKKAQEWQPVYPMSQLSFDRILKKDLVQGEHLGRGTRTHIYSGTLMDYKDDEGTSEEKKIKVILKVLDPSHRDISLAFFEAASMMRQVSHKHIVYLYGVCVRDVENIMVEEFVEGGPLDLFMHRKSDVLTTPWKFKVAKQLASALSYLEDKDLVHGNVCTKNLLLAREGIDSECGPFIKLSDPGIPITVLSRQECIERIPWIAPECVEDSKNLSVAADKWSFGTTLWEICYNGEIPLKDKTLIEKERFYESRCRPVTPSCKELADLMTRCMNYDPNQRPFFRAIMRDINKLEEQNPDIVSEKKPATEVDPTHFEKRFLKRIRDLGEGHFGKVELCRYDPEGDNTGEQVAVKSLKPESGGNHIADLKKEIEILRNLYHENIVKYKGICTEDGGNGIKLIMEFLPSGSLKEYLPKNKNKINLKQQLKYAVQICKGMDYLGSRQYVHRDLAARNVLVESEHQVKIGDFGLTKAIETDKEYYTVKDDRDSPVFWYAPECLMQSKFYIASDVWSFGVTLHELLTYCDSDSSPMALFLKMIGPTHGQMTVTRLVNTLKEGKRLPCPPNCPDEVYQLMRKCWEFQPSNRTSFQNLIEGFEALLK
kinases (KINOMEscan panel) (Homo sapiens, UniProt Q9BX84), sequence (Q9BX84 whole entry): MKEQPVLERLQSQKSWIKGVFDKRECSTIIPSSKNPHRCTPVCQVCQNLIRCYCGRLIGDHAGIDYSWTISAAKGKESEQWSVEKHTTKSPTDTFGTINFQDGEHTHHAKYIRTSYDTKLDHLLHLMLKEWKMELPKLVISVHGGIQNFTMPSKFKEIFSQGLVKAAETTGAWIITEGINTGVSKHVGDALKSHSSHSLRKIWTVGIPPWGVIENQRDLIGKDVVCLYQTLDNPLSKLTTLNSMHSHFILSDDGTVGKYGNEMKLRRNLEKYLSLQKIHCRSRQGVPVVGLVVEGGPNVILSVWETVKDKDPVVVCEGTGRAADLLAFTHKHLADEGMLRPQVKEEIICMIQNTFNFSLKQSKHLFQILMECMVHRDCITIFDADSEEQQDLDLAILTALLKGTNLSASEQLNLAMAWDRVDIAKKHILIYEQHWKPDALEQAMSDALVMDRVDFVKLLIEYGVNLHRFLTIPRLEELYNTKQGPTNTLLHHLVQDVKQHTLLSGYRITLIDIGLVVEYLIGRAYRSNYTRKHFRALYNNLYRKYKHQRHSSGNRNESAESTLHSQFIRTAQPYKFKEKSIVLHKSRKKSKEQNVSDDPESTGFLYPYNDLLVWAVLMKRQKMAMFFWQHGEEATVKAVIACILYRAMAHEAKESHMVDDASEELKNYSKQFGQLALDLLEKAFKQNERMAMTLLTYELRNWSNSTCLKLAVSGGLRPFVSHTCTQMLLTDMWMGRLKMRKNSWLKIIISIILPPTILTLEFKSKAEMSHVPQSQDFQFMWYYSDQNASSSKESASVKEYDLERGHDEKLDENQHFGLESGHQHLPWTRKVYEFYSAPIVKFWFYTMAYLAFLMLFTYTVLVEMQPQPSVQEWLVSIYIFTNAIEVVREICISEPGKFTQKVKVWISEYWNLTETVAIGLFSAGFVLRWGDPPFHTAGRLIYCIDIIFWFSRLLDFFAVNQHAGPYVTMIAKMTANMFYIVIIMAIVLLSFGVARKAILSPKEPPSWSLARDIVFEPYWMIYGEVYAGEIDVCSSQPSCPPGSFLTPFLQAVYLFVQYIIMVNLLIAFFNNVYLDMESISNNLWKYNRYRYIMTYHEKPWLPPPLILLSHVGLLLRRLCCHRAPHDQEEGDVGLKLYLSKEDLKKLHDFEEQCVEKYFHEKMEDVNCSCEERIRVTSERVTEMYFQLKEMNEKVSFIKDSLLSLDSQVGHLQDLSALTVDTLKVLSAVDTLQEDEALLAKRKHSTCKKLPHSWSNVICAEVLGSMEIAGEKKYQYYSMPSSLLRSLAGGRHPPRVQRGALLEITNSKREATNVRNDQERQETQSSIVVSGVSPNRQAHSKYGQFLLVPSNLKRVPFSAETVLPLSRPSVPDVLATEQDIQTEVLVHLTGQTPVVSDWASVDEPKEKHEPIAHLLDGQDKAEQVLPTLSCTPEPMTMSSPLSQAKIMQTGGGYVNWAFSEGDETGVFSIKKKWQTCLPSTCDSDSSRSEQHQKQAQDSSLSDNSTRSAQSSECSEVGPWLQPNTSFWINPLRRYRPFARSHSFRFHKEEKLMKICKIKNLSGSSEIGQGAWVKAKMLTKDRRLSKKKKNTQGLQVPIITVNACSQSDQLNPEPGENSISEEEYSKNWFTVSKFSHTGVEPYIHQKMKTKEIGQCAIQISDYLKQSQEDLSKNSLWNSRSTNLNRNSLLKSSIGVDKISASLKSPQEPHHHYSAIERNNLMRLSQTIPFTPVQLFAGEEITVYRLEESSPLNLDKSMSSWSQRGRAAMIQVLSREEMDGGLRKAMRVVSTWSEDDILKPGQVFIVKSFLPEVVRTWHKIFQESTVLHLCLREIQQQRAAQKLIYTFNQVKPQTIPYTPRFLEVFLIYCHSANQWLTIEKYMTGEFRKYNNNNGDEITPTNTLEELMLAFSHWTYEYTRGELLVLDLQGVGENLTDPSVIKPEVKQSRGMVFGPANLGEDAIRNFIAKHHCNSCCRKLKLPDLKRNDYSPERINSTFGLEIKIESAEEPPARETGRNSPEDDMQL

Row | SMILES | KINOMEscan EGFR(E746-A750del) [1] | KINOMEscan JAK1(JH1domain-catalytic) [2] | KINOMEscan GRK3 [3] | KINOMEscan EPHA4 [4] | KINOMEscan CDK5 [5] | KINOMEscan MAP3K10 [6] | KINOMEscan MAP3K11 [7] | KINOMEscan MKNK1 [8] | KINOMEscan TRPM6 [9] | KINOMEscan LATS2 [10] | KINOMEscan NLK [11]
1 | Cc1cccc(-c2nc(Nc3ccc4nn(C)cc4c3)c3ccccc3n2)n1 [NK167] | 15 | 0 | 0 | 0 | 14 | 13 | 0 | 0 | 0 | 19 | 0
2 | Cc1cccc(-c2nc(N(C)c3ccc4ncsc4c3)c3ccccc3n2)n1 [NK-161] | 21 | 0 | 25 | 5 | 19 | 1 | 0 | 7 | 0 | 26 | 0
